Counter-ions that a name gives are not always drawn.
Experiment: in vitro
Details: rat, gh3-tre-luc cells, AC50 (uM) modified / 1000

With `COC(=O)[C@H]1[C@H]2C[C@H]3c4[nH]c5ccccc5c4CCN3C[C@H]2CC[C@@H]1O` [Rauwolscine] as the compound, how does the CC50 at 24 h read?
Its CC50 at 24 h is greater than 50 µM.

Which CC50 at 24 h does the source give for `CCCCCCCCCCCCCCCC(=O)O[C@@H]1[C@@H](O)[C@@H](O)[C@@H]([C@H](NC(=O)[C@@H]2C[C@@H](CCC)CN2C)[C@H](C)Cl)O[C@@H]1SC` [Clindamycin palmitate hydrochloride] here?
The CC50 at 24 h was greater than 50 µM.

For `Nc1ccc(Cl)cc1[N+](=O)[O-]` [4-Chloro-2-nitroaniline], which CC50 at 24 h is on record?
Its CC50 at 24 h is greater than 90 µM.

For `Oc1cc(Cl)ccc1Cl` [2,5-Dichlorophenol], which CC50 at 24 h is on record?
Its CC50 at 24 h is greater than 90 µM.

For `CCC(=O)c1ccc2c(c1)N(CCCN(C)C)c1ccccc1S2` [Propionylpromazine hydrochloride], which CC50 at 24 h is on record?
The CC50 at 24 h was 6.21 µM.

With `Cc1cc(Cl)ccc1OCC(=O)O` [MCPA] as the compound, how does the CC50 at 24 h read?
Its CC50 at 24 h is greater than 90 µM.

With `CC(C)c1ccc2sc3ccccc3c(=O)c2c1` [2-(Propan-2-yl)-9H-thioxanthen-9-one] as the compound, how does the CC50 at 24 h read?
Its CC50 at 24 h is greater than 90 µM.

For `Nc1cc(N)cc(C(=O)O)c1` [3,5-Diaminobenzoic acid], which CC50 at 24 h is on record?
Its CC50 at 24 h is greater than 90 µM.

With `CCNC(=O)[C@@H](C)OC(=O)Nc1ccccc1` [Carbetamide] as the compound, how does the CC50 at 24 h read?
The CC50 at 24 h was greater than 90 µM.

For `CC(CO)Oc1ccccc1` (centres unmarked) [2-Phenoxy-1-propanol], which CC50 at 24 h is on record?
The CC50 at 24 h was greater than 90 µM.

For `C[C@H](O)[C@H]1CC[C@H]2[C@@H]3CC[C@@H]4C[C@H](O)CC[C@]4(C)[C@H]3CC[C@]12C` [Pregnandiol], which CC50 at 24 h is on record?
Its CC50 at 24 h is greater than 50 µM.

With `C=CC(C)(CCC=C(C)C)OC(=O)CC(C)C` (centres unmarked) [Linalyl isovalerate] as the compound, how does the CC50 at 24 h read?
The CC50 at 24 h was greater than 90 µM.

With `Brc1c(NC2=NCCN2)ccc2nccnc12` [Brimonidine] as the compound, how does the CC50 at 24 h read?
Its CC50 at 24 h is greater than 50 µM.

With `C#C[C@]1(O)CC[C@H]2[C@@H]3CCC4=CCCC[C@@H]4[C@H]3C(=C)C[C@@]21CC` [Desogestrel] as the compound, how does the CC50 at 24 h read?
Its CC50 at 24 h is 34.9 µM.

For `CCC(=O)c1c(O)cc(O)cc1O` [Flopropione], which CC50 at 24 h is on record?
The CC50 at 24 h was greater than 50 µM.

Which CC50 at 24 h does the source give for `N[C@H]1C(O)O[C@H](CO)[C@@H](O)[C@@H]1O` (some centres unmarked) [Glucosamine hydrochloride] here?
The CC50 at 24 h was greater than 50 µM.

Which CC50 at 24 h does the source give for `CCOCCC(=O)OCC` [Ethyl 3-ethoxypropionate] here?
Its CC50 at 24 h is greater than 100 µM.

With `C/C=C/C1=C(C(=O)O)N2C(=O)[C@@H](NC(=O)[C@H](N)c3ccc(O)cc3)[C@H]2SC1` [Cefprozil monohydrate] as the compound, how does the CC50 at 24 h read?
Its CC50 at 24 h is greater than 50 µM.

Which CC50 at 24 h does the source give for `NNc1nc(-c2ccc(N)cc2)cs1` [2-Hydrazino-4-(4-aminophenyl) thiazole] here?
The CC50 at 24 h was 74.8 µM.

For `CN1C(C)(C)CC(O)CC1(C)C` [1,2,2,6,6-Pentamethylpiperidin-4-ol], which CC50 at 24 h is on record?
The CC50 at 24 h was greater than 90 µM.

With `Cc1ccc(S(=O)(=O)NC(=O)NN2CC3CCC[C@@H]3C2)cc1` (stereo in doubt) [Gliclazide] as the compound, how does the CC50 at 24 h read?
Its CC50 at 24 h is greater than 20 µM.

With `CC12CCC(C[N+](C)(CCC[N+](C)(C)C)C1)C2(C)C` (centres unmarked) [Trimethidinium methyl sulfate] as the compound, how does the CC50 at 24 h read?
The CC50 at 24 h was greater than 50 µM.

With `CCN(CC)Cc1nccn1-c1ccc([N+](=O)[O-])cc1C(=O)c1ccccc1Cl` [Nizofenone] as the compound, how does the CC50 at 24 h read?
The CC50 at 24 h was greater than 50 µM.

With `CCCC(=O)Nc1ncnc2c1ncn2[C@@H]1O[C@@H]2COP(=O)(O)O[C@H]2[C@H]1OC(=O)CCC` [Bucladesine] as the compound, how does the CC50 at 24 h read?
Its CC50 at 24 h is greater than 50 µM.

Which CC50 at 24 h does the source give for `CC1(C)C2=CCCC(C)(C)[C@]23CC[C@H]1C3` [(-)-Isolongifolene] here?
The CC50 at 24 h was greater than 90 µM.

For `CCCOc1ccc2nc(NC(=O)OC)[nH]c2c1` [Oxibendazole], which CC50 at 24 h is on record?
The CC50 at 24 h was 0.527 µM.

Which CC50 at 24 h does the source give for `Cc1ccc(C(C)(C)c2ccc(C)cc2)cc1` [2,2-Di-4-tolylpropane] here?
The CC50 at 24 h was greater than 50 µM.

Which CC50 at 24 h does the source give for `CCCCNCC(O)c1ccc(O)cc1` (centres unmarked) [Bamethan] here?
Its CC50 at 24 h is greater than 50 µM.

For `OC1CCCc2ccccc21` (centres unmarked) [1,2,3,4-Tetrahydronaphthalen-1-ol], which CC50 at 24 h is on record?
The CC50 at 24 h was greater than 90 µM.

Same assay, conditions: rat, gh3-tre-luc cells, AC50 (uM) modified / 1000, Tox21_110001=Tox21_113161; viability, 1 nM T3 present, 24 h

Which CC50 at 24 h does the source give for `C[C@]12CCC(=O)C=C1CC[C@@H]1[C@@H]2CC[C@@]2(C)[C@H]1CC[C@]2(C)O` [17-Methyltestosterone] here?
Its CC50 at 24 h is greater than 50 µM.

Same assay, conditions: rat, gh3-tre-luc cells, AC50 (uM) modified / 1000, Tox21_110001=Tox21_200120; viability, 1 nM T3 present, 24 h

With `O=Cc1ccc2c(c1)OCO2` [Piperonal] as the compound, how does the CC50 at 24 h read?
Its CC50 at 24 h is greater than 90 µM.

Same assay, conditions: rat, gh3-tre-luc cells, AC50 (uM) modified / 1000, Tox21_110001=Tox21_200823; viability, 1 nM T3 present, 24 h

For `Clc1cccc2ccccc12` [1-Chloronaphthalene], which CC50 at 24 h is on record?
The CC50 at 24 h was greater than 90 µM.

Same assay, conditions: rat, gh3-tre-luc cells, AC50 (uM) modified / 1000, Tox21_110001=Tox21_202175; viability, 1 nM T3 present, 24 h

Which CC50 at 24 h does the source give for `Nc1ccccc1C(=O)OCCc1ccccc1` [Phenethyl anthranilate] here?
The CC50 at 24 h was greater than 90 µM.

Same assay, conditions: rat, gh3-tre-luc cells, AC50 (uM) modified / 1000, Tox21_110001=Tox21_301901; viability, 1 nM T3 present, 24 h

With `CCCN(CCC)c1c([N+](=O)[O-])cc(S(C)(=O)=O)cc1[N+](=O)[O-]` [Nitralin] as the compound, how does the CC50 at 24 h read?
Its CC50 at 24 h is greater than 90 µM.

Same assay, conditions: rat, gh3-tre-luc cells, AC50 (uM) modified / 1000, Tox21_110001=Tox21_400058; viability, 1 nM T3 present, 24 h

Which CC50 at 24 h does the source give for `C[C@]12CCC(=O)C=C1CC[C@@H]1[C@@H]2CC[C@@]2(C)[C@H]1CC[C@]2(C)O` [17-Methyltestosterone] here?
The CC50 at 24 h was greater than 90 µM.
